Calls of active or inactive are those of the source.
What was measured:
[1] = molecular target: Inward rectifier potassium channel 2 (Mus musculus, UniProt P35561); test: Manual electrophysiological patch clamp assay for SAR compounds that inhibit/block inward-rectifying potassium ion channel Kir2.1. [Related pubchem assays: 1843 (Summary assay for Kir2.1 inhibitor assays.), 1672 (Primary HTS of 305616 compounds where 2592 were identified as active.)]; type: functional
Cytochrome P450 2D6 = Cytochrome P450 2D6 (Homo sapiens, UniProt P10635); test: qHTS Assay for Inhibitors and Substrates of Cytochrome P450 2D6. [Related pubchem assays: 410 ]; type: ADME; conditions: read-out: Potency
Cytochrome P450 2C9 = Cytochrome P450 2C9 (Homo sapiens, UniProt P11712); conditions: Potency
[2] = Luminescence Cell-Based Dose Retest to Confirm Inhibitors of Cancer Stem Cells. [Related pubchem assays (depositor defined):AID2717, AID2721]; type: functional; conditions: Homo sapiens
[3] = molecular target: Sphingosine 1-phosphate receptor 2 (Homo sapiens, UniProt O95136); test: Dose Response Cell Based Assay for Agonists of the S1P2 Receptor of Purchased Analogues. [Related pubchem assays: 729, 843, 854, 736 ]; type: functional
[4] = molecular target: Transitional endoplasmic reticulum ATPase (Homo sapiens, UniProt P55072, C522A); test: Luminescence counterscreen assay for p97 inhibitors: dose response biochemical high throughput screening assay to identify inhibitors of the C522A mutant p97 ATPase: synthesized compounds. [Related pubchem assays: 1481, 1517, 1551 ]
[5] = molecular target: Transitional endoplasmic reticulum ATPase (Homo sapiens, UniProt P55072); test: Luminescence dose response biochemical high throughput screening assay for inhibitors of the p97 ATPase: synthesized compounds. [Related pubchem assays: 1481, 1517 ]
[6] = molecular target: Lysosomal acid glucosylceramidase (Homo sapiens, UniProt P04062); test: Dose response cell-based high throughput screening assay to identify enhancers of beta-glucosidase activity. [Related pubchem assays: 784 ]; type: functional
Fatty acid synthase [7] = molecular target: T1, Fatty acid synthase (Homo sapiens, UniProt P49327); test: inhibition of human FAS-TE enzyme activity – biochemical, endpoint fluorescence intensity, uHTS hits, dose response (AID 624327); type: functional;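 also: fluorescence from hydrolysis of an O-methyl fluorescein acyl ester substrate by the enzyme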
[8] = molecular target: T2, Induced myeloid leukemia cell differentiation protein Mcl-1 (Homo sapiens, UniProt Q07820); test: blockers of MCL1 binding to BIM peptide – biochemical, fluorescence polarization, BIM-BH3 peptide, 1536-well, dose response (AID 2217)
Genome polyprotein = Genome polyprotein (dengue virus type 2, UniProt P29990); test: flavivirus cap methylation enzyme inhibition – biochemical, confirmation dose response, primary screen (AID 588689); type: functional
Fatty acid synthase [9] = molecular target: T1, Fatty acid synthase; test: inhibition of human FAS-TE enzyme activity – biochemical, kinetic fluorescence intensity, dose response (AID 624326); type: functional;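 also: rate of fluorescence rise from hydrolysis of a fluorogenic O-methyl fluorescein ester substrate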
[10] = molecular target: T2, Induced myeloid leukemia cell differentiation protein Mcl-1; type: functional
Bcl-2-like protein 1 = Bcl-2-like protein 1 (Homo sapiens, UniProt Q07817); test: blockers of BCLXL peptide binding – biochemical, fluorescence polarization, 1536-well, selectivity assay for MCL1 inhibitor project, dose response (AID 2218)
[11] = mitochondrial function rescue without frataxin homolog – Friedreich's ataxia, plus single-dose screen, dose response (AID 1465); type: functional;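 also: yeast depleted of Yfh1p frataxin homolog grown on glycerol needing respiration; WST-1 tetrazolium dye reduction as measure of cellular dehydrogenase metabolic activity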
Prothrombin = Prothrombin (Bos taurus, UniProt P00735); test: thrombin protease inhibitors – biochemical, fluorescence polarization, uHTS hits, dose response (AID 602369); type: functional
[12] = molecular target: 72 kDa type IV collagenase (Homo sapiens, UniProt P08253); test: Dose Response validation of uHTS RPN11 inhibitor hits using a MMP-2 Fluorescence assay.; type: functional
[13] = molecular target: 26S proteasome non-ATPase regulatory subunit 14 (Homo sapiens, UniProt O00487); test: inhibition of proteasome subunit RPN11 – biochemical, fluorescence polarization, uHTS hits, confirmation (AID 602368); type: functional
[14] = DRD fibroblast viability loss – cell-based, non-viral oncogenic, luminescence, dose response (AID 1934); type: functional; conditions: Homo sapiens
[15] = alpha-synuclein stem-loop luciferase translation blockers – H4 neuroglioma cells, luminescence, confirmation (AID 1988); type: functional, cell-based
BJ [16] = test: BJ-TERT-LT-ST fibroblast viability loss – cell-based, RAS-independent, luminescence, dose response (AID 1935); type: functional; conditions: Homo sapiens;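 also: BJ fibroblasts immortalized with TERT plus LT and ST oncogenes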
[17] = alpha-synuclein stem-loop translation blockers – luminescence, H4 neuroglioblastoma cells, dose confirmation, confirmation (AID 2454); type: functional, cell-based;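 also: H4 neuroglioblastoma cells carrying an alpha-synuclein 5'UTR luciferase reporter; potency for inhibition of the luciferase signal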
BJ [18] = test: BJ-TERT fibroblast viability loss – cell-based, RAS-independent, luminescence, dose response (AID 1933); type: functional; conditions: Homo sapiens
[19] = luciferase reporter signal reduction – luminescence, H4-C neuroglioblastoma cells, dose response (AID 2458); type: functional, cell-based;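 also: H4 neuroglioblastoma cells stably carrying a luciferase reporter gene fusion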
cells = type: functional, cell-based
BJ [20] = test: cells; type: functional, cell-based; conditions: Homo sapiens

T1 sequence (P49327 whole entry): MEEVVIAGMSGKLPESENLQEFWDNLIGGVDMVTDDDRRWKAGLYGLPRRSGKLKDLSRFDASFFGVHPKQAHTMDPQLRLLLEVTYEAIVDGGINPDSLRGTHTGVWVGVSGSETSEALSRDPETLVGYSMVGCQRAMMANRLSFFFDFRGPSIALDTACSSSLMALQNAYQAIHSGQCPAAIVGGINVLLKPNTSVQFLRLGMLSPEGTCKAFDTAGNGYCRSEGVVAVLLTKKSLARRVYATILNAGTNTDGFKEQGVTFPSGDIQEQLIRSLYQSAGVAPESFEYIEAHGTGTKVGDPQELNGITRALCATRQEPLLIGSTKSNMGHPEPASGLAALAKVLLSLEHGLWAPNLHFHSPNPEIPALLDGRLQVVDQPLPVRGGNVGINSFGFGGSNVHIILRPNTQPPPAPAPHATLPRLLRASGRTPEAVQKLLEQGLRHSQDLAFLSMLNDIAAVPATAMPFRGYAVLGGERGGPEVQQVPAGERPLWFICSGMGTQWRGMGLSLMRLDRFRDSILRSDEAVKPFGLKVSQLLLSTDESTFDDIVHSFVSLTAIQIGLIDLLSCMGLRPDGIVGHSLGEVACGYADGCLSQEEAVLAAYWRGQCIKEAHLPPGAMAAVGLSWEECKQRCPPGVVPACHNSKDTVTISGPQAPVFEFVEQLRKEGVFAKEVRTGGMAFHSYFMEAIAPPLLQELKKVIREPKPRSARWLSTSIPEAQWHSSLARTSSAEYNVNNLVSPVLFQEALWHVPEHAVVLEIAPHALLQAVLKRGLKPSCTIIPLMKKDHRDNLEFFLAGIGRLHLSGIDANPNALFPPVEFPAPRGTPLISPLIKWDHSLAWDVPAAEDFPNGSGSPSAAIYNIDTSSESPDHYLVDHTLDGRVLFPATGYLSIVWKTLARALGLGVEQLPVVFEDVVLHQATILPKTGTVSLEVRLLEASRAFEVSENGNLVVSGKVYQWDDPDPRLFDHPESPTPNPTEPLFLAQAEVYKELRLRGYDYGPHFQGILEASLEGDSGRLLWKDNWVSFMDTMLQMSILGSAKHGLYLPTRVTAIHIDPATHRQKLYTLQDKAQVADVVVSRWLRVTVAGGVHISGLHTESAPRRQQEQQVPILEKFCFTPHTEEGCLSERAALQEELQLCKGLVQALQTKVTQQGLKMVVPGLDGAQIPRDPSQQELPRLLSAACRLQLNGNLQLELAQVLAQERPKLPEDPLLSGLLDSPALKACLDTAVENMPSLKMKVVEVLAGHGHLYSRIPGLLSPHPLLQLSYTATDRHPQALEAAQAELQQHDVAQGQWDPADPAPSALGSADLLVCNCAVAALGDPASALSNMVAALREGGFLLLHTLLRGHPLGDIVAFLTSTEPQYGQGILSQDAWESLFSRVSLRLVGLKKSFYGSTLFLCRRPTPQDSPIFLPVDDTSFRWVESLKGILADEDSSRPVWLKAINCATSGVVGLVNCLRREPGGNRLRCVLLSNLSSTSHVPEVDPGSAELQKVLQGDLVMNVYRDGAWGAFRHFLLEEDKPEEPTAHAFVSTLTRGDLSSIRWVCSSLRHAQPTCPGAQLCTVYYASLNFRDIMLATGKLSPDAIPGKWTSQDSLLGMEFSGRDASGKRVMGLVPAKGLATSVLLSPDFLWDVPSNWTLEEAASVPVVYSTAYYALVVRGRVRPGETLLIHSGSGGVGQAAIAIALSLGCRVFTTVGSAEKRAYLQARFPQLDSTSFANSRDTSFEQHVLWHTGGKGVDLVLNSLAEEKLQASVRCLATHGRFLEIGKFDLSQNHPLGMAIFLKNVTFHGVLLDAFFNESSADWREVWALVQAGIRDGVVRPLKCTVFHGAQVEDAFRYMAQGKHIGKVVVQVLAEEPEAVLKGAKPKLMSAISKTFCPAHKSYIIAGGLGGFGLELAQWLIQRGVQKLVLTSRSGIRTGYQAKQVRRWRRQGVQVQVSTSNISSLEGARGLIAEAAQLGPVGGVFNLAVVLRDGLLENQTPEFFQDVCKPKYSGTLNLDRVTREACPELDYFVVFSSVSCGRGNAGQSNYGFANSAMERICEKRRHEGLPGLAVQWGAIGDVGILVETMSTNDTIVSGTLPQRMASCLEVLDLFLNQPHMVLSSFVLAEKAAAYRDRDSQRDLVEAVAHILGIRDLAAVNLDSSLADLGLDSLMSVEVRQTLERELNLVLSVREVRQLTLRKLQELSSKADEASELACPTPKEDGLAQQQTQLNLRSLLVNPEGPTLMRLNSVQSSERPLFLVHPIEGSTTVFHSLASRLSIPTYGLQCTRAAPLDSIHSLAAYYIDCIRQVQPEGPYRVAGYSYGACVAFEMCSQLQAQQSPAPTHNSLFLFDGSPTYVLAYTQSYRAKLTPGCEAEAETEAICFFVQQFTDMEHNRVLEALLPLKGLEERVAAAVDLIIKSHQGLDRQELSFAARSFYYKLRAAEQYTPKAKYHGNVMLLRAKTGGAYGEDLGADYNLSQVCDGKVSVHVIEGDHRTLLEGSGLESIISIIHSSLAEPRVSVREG
T2 sequence (Q07820 whole entry): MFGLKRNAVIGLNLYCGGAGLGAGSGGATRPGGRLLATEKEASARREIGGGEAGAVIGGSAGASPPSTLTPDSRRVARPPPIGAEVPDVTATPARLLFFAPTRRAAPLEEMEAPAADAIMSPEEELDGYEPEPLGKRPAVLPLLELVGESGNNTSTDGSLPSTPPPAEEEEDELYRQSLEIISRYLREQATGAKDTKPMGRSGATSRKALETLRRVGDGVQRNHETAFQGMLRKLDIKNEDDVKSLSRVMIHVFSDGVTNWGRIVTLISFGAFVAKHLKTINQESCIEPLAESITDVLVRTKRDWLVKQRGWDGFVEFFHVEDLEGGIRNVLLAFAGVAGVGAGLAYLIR
Genome polyprotein, sequence (P29990 2492-3391 limits assumed): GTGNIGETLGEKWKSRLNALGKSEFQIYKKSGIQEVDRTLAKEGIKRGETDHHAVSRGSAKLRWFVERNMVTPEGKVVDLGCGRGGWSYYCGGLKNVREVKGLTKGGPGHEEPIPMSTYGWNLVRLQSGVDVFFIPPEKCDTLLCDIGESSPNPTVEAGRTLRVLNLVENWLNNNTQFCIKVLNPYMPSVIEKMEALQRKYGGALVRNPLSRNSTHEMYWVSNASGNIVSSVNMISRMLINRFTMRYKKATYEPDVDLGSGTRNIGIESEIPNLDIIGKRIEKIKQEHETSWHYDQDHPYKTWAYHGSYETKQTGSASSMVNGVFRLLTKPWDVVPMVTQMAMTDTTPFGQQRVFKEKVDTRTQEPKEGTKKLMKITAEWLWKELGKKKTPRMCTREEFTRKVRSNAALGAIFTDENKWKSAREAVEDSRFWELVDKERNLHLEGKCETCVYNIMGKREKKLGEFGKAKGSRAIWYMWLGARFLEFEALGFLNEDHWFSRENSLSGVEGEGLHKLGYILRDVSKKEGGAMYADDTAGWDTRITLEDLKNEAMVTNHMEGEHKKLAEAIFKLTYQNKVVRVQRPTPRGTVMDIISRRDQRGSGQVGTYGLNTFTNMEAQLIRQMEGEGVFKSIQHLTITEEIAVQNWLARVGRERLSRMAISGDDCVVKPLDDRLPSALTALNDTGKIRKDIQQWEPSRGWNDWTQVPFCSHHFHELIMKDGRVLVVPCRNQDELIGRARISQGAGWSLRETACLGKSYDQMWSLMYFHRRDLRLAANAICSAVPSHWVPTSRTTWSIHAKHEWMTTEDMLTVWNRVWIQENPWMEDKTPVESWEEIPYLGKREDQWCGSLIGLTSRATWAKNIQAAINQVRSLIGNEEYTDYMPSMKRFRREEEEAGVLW
26S proteasome non-ATPase regulatory subunit 14, sequence (O00487 whole entry): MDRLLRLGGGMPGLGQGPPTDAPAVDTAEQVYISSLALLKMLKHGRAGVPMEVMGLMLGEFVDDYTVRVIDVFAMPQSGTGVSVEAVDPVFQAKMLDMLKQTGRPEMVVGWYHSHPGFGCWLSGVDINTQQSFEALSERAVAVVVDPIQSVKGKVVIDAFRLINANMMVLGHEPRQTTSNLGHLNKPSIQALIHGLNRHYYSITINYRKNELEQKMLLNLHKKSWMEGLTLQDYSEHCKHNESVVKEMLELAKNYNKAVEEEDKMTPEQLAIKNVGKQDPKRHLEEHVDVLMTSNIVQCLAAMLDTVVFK
Inward rectifier potassium channel 2, sequence (P35561 whole entry): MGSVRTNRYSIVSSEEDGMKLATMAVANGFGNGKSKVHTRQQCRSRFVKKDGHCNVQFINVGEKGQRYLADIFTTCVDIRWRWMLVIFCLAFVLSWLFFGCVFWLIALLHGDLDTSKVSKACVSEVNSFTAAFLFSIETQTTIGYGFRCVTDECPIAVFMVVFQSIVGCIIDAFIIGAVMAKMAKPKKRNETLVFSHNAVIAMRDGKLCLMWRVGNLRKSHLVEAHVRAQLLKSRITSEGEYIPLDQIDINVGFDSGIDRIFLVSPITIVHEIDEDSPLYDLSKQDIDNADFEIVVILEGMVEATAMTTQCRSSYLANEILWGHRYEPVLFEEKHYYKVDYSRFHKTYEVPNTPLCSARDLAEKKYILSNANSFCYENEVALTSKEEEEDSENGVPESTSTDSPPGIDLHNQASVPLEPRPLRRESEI
Cytochrome P450 2C9, sequence (P11712 whole entry): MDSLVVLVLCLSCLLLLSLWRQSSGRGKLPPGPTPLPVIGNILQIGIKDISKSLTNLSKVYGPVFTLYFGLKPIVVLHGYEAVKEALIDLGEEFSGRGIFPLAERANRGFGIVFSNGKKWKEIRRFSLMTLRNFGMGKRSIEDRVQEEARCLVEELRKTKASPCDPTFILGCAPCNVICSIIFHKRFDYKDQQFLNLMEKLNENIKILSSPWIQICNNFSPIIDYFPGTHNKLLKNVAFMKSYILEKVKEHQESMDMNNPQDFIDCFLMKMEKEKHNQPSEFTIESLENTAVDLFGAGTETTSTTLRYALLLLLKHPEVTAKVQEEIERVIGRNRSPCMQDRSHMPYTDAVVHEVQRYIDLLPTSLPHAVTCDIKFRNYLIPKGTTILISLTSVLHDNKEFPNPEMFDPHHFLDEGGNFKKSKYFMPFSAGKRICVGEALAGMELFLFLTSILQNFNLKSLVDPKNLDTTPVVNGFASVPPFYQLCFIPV

COc1ccc(CNCc2cc(F)cc(F)c2)cc1
IC50 [1]: 7.22 µM (active)

CC(=O)OC(C)(C)/N=N\c1ccc(Br)cc1
AC50 (Cytochrome P450 2D6): 3.16 µM (inconclusive)
AC50 (Cytochrome P450 2C9): 5.01 µM (inconclusive)

Cc1cc(C(=O)CN2C(=O)C(=O)N(Cc3ccccc3)C2=O)c(C)n1Cc1ccccc1
AC50 [2]: 2.54 µM (active)
EC50 [3]: > 30 µM (not active)

N#C/C=C/c1ccccc1Nc1ccc(S(N)(=O)=O)cc1
IC50 [4]: > 50 µM (not active)
IC50 [5]: > 50 µM (not active)

N#Cc1c2n(c3c(=O)n(Cc4ccccc4Cl)cnc13)CCCCC2
EC50 [6]: > 50 µM (not active)

O=C(O)COc1ccccc1C(Nc1ccccn1)c1cc(Cl)c2cccnc2c1O (stereo unspecified)
IC50 (Fatty acid synthase [7]): 18.5 µM (active)
IC50 [8]: 1.74 µM (active)
IC50 (Genome polyprotein): 43.3 µM (active)
IC50 (Fatty acid synthase [9]): 14.3 µM (active)
IC50 [10]: 9.35 µM (active)
IC50 (Bcl-2-like protein 1): > 109 µM (not active)

CC(=O)N1CCc2cc(NN=C3C(=O)CC(C)(C)CC3=O)ccc21
EC50 [11]: > 100 µM (active)
IC50 (Prothrombin): 31.5 µM (active)
IC50 [12]: > 100 µM (inactive)
IC50 [13]: 35.5 µM (active)

CCOc1ccc(S(=O)(=O)Nc2cc(OC)ccc2OC)cc1
EC50 [14]: 0.965 µM (inconclusive)
EC50 [15]: < 0.1 µM (active)
EC50 (BJ [16]): 0.495 µM (inconclusive)
EC50 [17]: 0.947 µM (active)
EC50 (BJ [18]): 0.451 µM (active)
EC50 [19]: 0.553 µM (active)
EC50 (cells): 0.839 µM (active)
EC50 (BJ [20]): 21.2 µM (active)

— ChEMBL document CHEMBL1201862, “PubChem BioAssay data set” (2004)
